Tests used:
[1] = tested on: O3-induced pulmonary inflammation; assay: O3-induced pulmonary inflammation model, parenteral administration, BALF analysis; assay type: in vivo, mice; details: 10 mg/kg, BALF 24 h post exposure, FIG. 2, pilot study
Description: Using the O3-induced pulmonary inflammation model, we have evaluated and compared the anti-inflammatory efficacy of PC-Indomethacin vs indomethacin administered parenterally at a dose of 10 mg/kg vs vehicle control and evaluated the BALF 24 h post exposure. The white cell counts and protein concentrations of the BALF of the test groups are depicted in FIG. 2.

[2] = tested on: O3-induced pulmonary inflammation; assay: O3-induced lung injury/pulmonary inflammation model, endotracheal administration, BALF analysis; assay type: in vivo, mice
Description: Because of the clinical relevance of environmental ozone exposure, and the experience of our team, with the murine model of O3-induced LI, pulmonary inflammation, and/or AHR, we have evaluated the anti-inflammatory efficacy of our PC-NSAID formulations using this robust model system. In these studies, all mice were pre-dosed (via endotracheal administration) with vehicle, indomethacin (at a dose range from 2 mg/kg), ibuprofen (5 mg/kg) or the equivalent (NSAID) doses of the PC-NSAID compositions, 1 h before and 1.5 hours after being exposed to either filtered room air or O3 (2 ppm) for 3 h and then 6 h or 24 h following the cessation of exposure airway pulmonary injury and inflammation were assessed by euthanizing the animals and collecting bronchoalveolar lavage fluid (BALF) using standard techniques. The O3 exposure protocol were chosen to allow for comparison with data of other investigators studying acute O3-induced pulmonary inflammation/AHR in mice.
In these studies, all mice were pre-dosed with vehicle (PBS), NSAID (indomethacin or ibuprofen) (at a dose of 2 mg NSAID/kg), or the equivalent (NSAID) dose of the corresponding PC-NSAID composition using an endo-tracheal delivery method refined that we refined (25 μL/rat) 1 h before and 90 minutes after being exposed to either filtered room air or O3 (2 ppm) for 3 h. The PC-Indomethacin composition was prepared dissolving indomethacin and purified PC (Phospholipon 90G from Lipoid) in a polar solvent (such as acetone), followed by vacuum removal of the solvent to form a purified PC-NSAID oil composition. This purified PC-NSAID oil composition is then added to an amount of phosphate buffered saline (PBS) followed by 30 minutes of sonication to provide a uniform composition at the appropriate dose for intra-tracheal administration. In some experiments, we prepared the PC-Indomethacin composition using Lipoid S-100 (a highly purified >98% soy PC product, as recommended by the manufacturer) instead of Phospholipon 90G, as well as comparing the effects of the purified soy PC products (S-100 and 90G) alone. […] Twenty-four hours (24 h) following the cessation of O3 exposure, pulmonary injury and inflammation were assessed by euthanizing the animals and collecting bronchoalveolar lavage (BALE) fluid using standard techniques. The collected BALF samples were centrifuged (with the cell pellet analyzed for white cells) and the supernatant analyzed for protein and prostaglandin E2, all markers of pulmonary inflammation.
The concentration of total BALF protein has been determined spectrophotometrically according to the Bradford protein assay procedure (Bio-Rad Laboratories, Inc.; Hercules, Calif.) while the levels of IL-6, MIP-2, PGE2 in the BALF are determined using a commercially available ELISA kit (Immunology Consultants Laboratories, Inc., Newberg, Oreg.), and MPO activity (by enzymatic kit provided CytoStore) in accordance to the manufacturer's instructions. Pulmonary inflammation has been determined by assessing the BALF cell differentials on Cytospin cytocentrifuge preparations. Hemoglobin has been measured by the benzidine assay.
We used a modification the protocol employed in pilot studies. In these earlier experiments, mice were pre-dosed with phosphate buffered saline (PBS) vehicle, the test NSAID (indomethacin or ibuprofen) (at a dose of 2 mg or 5 mg NSAID/kg), PC (4 mg/k or 10 mg/kg), respectively, or the equivalent (NSAID) dose of the PC-NSAID complex using an endotracheal delivery method refined in our lab (25 μL/rat) 1 h before and 90 minutes after being exposed to either filtered room air or O3 (2 ppm) for 3 h.

[3] = Storage stability of PC-NSAID oil and reconstituted dispersions; assay type: physicochemical; details: dispersed in sodium bicarbonate buffer, stored at 4° C., FIG. 8
Description: The proprietary method used to prepare the purified PC-NSAIDs takes advantage of the fact that pre-dissolving indomethacin (or ibuprofen) in acetone beforehand markedly increases the solubility of PC in this polar solvent (normally PC has a very limited solubility in acetone). Thereby the NSAID and purified soy PC (Lipoid S-100) (1:1 PC to NSAID molar ratio, which correspond to 2:1 PC to NSAID weight ratio) are dissolved in acetone, in this order and incubated at 40° C. until the solution clarifies. This solution is then placed in a rotor-evaporator for at least 12 hours to remove the volatile solvent. In the case of disaturated PC, such as dipalmitoyl-PC (DPPC) (which is the major phospholipid in pulmonary surfactant) we have learned that it is important to have 2-4 times more NSAID than PC (on a molar basis) to drive the solubility of the DPPC into the polar solvent. […] With the advice of the soy lecithin manufacturer (Lipoid Inc., Heidelberg, Germany) we are transitioning to their more purified soy lecithin product (Lipoid S-100) which already is approved for parenteral administration. […] FIGS. 10-13 indicate that these PC-NSAID formulations can readily be aerosolized into particles having a diameter between 2-6 μm for deep lung deposition.

[4] = ozone-exposed mice (2 ppm, 3 h), endotracheal dosing 1 h before and 90 min after, BALF 24 h post-exposure, *=p<0.05 vs air

SMILES: COc1ccc2c(c1)c(CC(=O)O)c(C)n2C(=O)c1ccc(Cl)cc1 [Indomethacin, indomethacin]
- white cell counts and protein concentrations of the BALF (index of O3-induced pulmonary inflammation) [1]: appeared to inhibit
- white cell count in BALF, effect in words ([2]; O3-exposed mice, endotracheal, BALF 24 h post, FIG. 3 (indomethacin), FIG. 9A (ibuprofen, PC is DPPC)): increased white cell count relative to vehicle
- protein concentration of BALF, effect in words ([2]; O3-exposed mice, endotracheal, BALF 24 h post, FIG. 4 (indomethacin), FIG. 9B (ibuprofen, PC is DPPC)): did not cause a similar effect
- PGE2 concentration in BALF, effect in words ([2]; O3-exposed mice, endotracheal, FIG. 6 (indomethacin), FIG. 9D (ibuprofen, PC is DPPC)): statistically significant effect to markedly inhibit
- BALF Cell Number [2, 4]: 163 ± 53*
- BALF MPO [2, 4]: 2.12 ± 0.43* ng/mL
- BALF PGE2 [2, 4]: 274 ± 141 pg/mL
- BALF Protein [2, 4]: 796 ± 135* μg/mL
- stability in sodium bicarbonate buffer [3]: degrades over time
